Laboratory results published in ChEMBL document CHEMBL6178019, “Discovery of CYP1A1 Inhibitors for Host-Directed Therapy against Sepsis” (J Med Chem, 2025).
Active and inactive are the calls of the source. The rule behind the calls is not given here.

Tests used:
Staphylococcus aureus [1] = assay: Antibacterial activity against methicillin-resistant Staphylococcus aureus infected in C57BL/6 mouse model assessed as reversal of creatinine level in serum at 25 mg/kg, ip administered for 12 hrs by absorbance based microplate reader; assay type: functional, organism-based
Staphylococcus aureus [2] = assay: Antibacterial activity against methicillin-resistant Staphylococcus aureus infected in C57BL/6 mouse model assessed as reduction in bacterial dissemination from PLF to kidney at 25 mg/kg, ip preadministered for 12 hrs followed by bacterial infection and measured after 24 hrs; assay type: functional, organism-based; details: time 36.0 hrs
Staphylococcus aureus [3] = assay: Antibacterial activity against methicillin-resistant Staphylococcus aureus infected in C57BL/6 mouse model assessed as reduction in bacterial load in peritoneal lavage fluid at 25 mg/kg, ip pretreated for 12 hrs followed by bacterial infection and measured after 24 hrs relative to control; assay type: functional; set-up: scale not given: the % may be the effect or the level left; details: time 36 hrs
Staphylococcus aureus [4] = assay: Antibacterial activity against methicillin-resistant Staphylococcus aureus infected in CYP1A1 deficient mouse assessed as bacterial clearance in PLF at 25 mg/kg, ip pretreated for 12 hrs followed by bacterial infection for 24 hrs; assay type: functional, organism-based; details: time 36.0 hrs
RAW264.7 [5] = assay: Induction of phagocytosis in mouse RAW264.7 cells at 5 uM incubated for 12 hrs by flow cytometric analysis; assay type: functional, cell-based
Escherichia coli = assay: Antibacterial activity Escherichia coli infected in C57BL/6 mouse model assessed as increase in survival rate at 25 mg/kg, ip incubated for 12 hrs followed by bacterial infection and measured after 100 hrs by Kaplan Meier survival analysis; assay type: functional, organism-based; details: time 112.0 hrs
RAW264.7 [6] = assay: Induction of phagocytosis in zymosan A stimulated mouse RAW264.7 cells assessed as upregulation of CD68 mRNA expression at 5.0 uM incubated for 12 hrs by qRT-PCR analysis; assay type: functional, cell-based
Staphylococcus aureus [7] = assay: Antibacterial activity against methicillin-resistant Staphylococcus aureus infected in C57BL/6 mouse model assessed as reversal of alanine transaminase level in serum at 25 mg/kg, ip administered for 12 hrs by absorbance based microplate reader; assay type: functional, organism-based
RAW264.7 [8] = assay: Induction of phagocytosis in mouse RAW264.7 cells assessed as upregulation of CD204 protein level by flow cytometric analysis; assay type: functional, cell-based
Staphylococcus aureus [9] = assay: Antibacterial activity against methicillin-resistant Staphylococcus aureus infected in macrophage-depleted mouse assessed as bacterial clearance in PLF at 25 mg/kg, ip pretreated with clodronate liposomes for 48 hrs followed by compound administration for 12 hrs and measured after 24 hrs of bacterial infection; assay type: functional, organism-based; details: time 36.0 hrs
Staphylococcus aureus [10] = assay: Antibacterial activity against methicillin-resistant Staphylococcus aureus infected in C57BL/6 mouse model assessed as reduction in liver damage at 25 mg/kg, ip administered for 12 hrs by H and E staining based analysis; assay type: functional, organism-based
THP-1 = assay: Induction of phagocytosis in human THP-1-derived macrophages infected with hexidine iodide labelled methicillin-R Staphylococcus aureus at 5 uM preincubated for 12 hrs followed by bacterial infection and measured after 1 hrs by fluorescence based confocal microscopic analysis; assay type: functional, cell-based; details: time 13.0 hrs
RAW264.7 [11] = assay: Induction of phagocytosis in mouse RAW264.7 cells assessed as upregulation of CD68 mRNA expression by qRT-PCR analysis; assay type: functional, cell-based
Pseudomonas aeruginosa = assay: Antibacterial activity against Pseudomonas aeruginosa infected in C57BL/6 mouse assessed as increase in survival at 25 mg/kg, ip pretreated for 12 hrs followed by bacterial infection and measured after 60 hrs by Kaplan Meier survival analysis; assay type: functional, organism-based; details: time 72.0 hrs
RAW264.7 [12] = assay: Induction of phagocytosis in mouse RAW264.7 cells assessed as upregulation of CD32 mRNA expression by qRT-PCR analysis; assay type: functional, cell-based
RAW264.7 [13] = assay: Induction of phagocytosis in zymosan A stimulated mouse RAW264.7 cells assessed as upregulation of SR-A1 mRNA expression at 5.0 uM incubated for 12 hrs by qRT-PCR analysis; assay type: functional, cell-based
[14] = Toxicity in male C57BL/6 mouse assessed as change in body weight at 1 to 100 mg/kg, ip measured after 7 days; assay type: organism-based; details: in vivo, 168 h, dose 1-100 mg/kg, time 7 day
Staphylococcus aureus [15] = assay: Antibacterial activity against methicillin-resistant Staphylococcus aureus infected in C57BL/6 mouse model assessed as reduction in bacterial dissemination from PLF to liver at 25 mg/kg, ip preadministered for 12 hrs followed by bacterial infection and measured after 24 hrs; assay type: functional, organism-based; details: time 36.0 hrs
[16] = Toxicity in male C57BL/6 mouse assessed as effect on blood urea nitrogen level in serum up to 100 mg/kg, ip measured after 12 hrs; assay type: organism-based; details: in vivo
Staphylococcus aureus [17] = assay: Antibacterial activity against methicillin-resistant Staphylococcus aureus infected in C57BL/6 mouse assessed as reduction in kidney damage at 25 mg/kg, ip administered for 12 hrs by H and E staining based analysis; assay type: functional, organism-based
Staphylococcus aureus [18] = assay: Antibacterial activity against methicillin-resistant Staphylococcus aureus infected in C57BL/6 mouse model assessed as reversal of aspartate aminotransferase level in serum at 25 mg/kg, ip administered for 12 hrs by absorbance based microplate reader; assay type: functional, organism-based
Staphylococcus aureus [19] = assay: Antibacterial activity against methicillin-resistant Staphylococcus aureus infected in C57BL/6 mouse assessed as reversal of blood urea nitrogen level in serum at 25 mg/kg, ip administered for 12 hrs by absorbance based microplate reader; assay type: functional, organism-based
Cytochrome P450 1A1 = biological target: T1, Cytochrome P450 1A1 (Homo sapiens, UniProt P04798); assay: Inhibition of CYP1A1 in human Caco-2 cells assessed as relative activity by measuring fold change at 5.0 uM incubated for 12 hrs by EROD assay relative to control; assay type: cell-based; details: caco-2, 12 h
T1 sequence (P04798 whole entry): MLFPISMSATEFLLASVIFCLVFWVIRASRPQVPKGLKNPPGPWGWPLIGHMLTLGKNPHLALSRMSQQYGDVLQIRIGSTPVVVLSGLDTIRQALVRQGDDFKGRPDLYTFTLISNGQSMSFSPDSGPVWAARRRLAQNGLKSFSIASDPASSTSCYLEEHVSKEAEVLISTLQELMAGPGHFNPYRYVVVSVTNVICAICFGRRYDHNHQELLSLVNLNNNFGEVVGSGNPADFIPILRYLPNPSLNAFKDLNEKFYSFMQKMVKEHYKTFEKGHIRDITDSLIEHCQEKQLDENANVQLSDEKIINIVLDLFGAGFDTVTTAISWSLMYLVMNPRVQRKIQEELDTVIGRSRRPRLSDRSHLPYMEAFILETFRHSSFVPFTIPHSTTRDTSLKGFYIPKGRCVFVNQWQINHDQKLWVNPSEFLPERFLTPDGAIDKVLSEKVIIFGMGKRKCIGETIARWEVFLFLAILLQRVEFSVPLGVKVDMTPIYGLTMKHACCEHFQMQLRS

[20] = Toxicity in male C57BL/6 mouse assessed as change in fur condition at 1 to 100 mg/kg, ip measured after 7 days; assay type: organism-based; details: in vivo, 168 h, dose 1-100 mg/kg, time 7 day
CYP1A1 = biological target: T2, CYP1A1 (Homo sapiens, UniProt P04798); assay: Inhibition of CYP1A1 in human Caco-2 cells assessed as relative activity by measuring fold change at 500 nM incubated for 12 hrs by EROD assay relative to control; assay type: cell-based; details: read-out: FC
T2 sequence (P04798 whole entry): T1 sequence (P04798 whole entry)

Structure (SMILES) | Activity (Staphylococcus aureus [1]) | Activity (Staphylococcus aureus [2]) | Activity (Staphylococcus aureus [3]) [%] | Activity (Staphylococcus aureus [4]) | Activity (RAW264.7 [5]) | Activity (Escherichia coli) | Activity (RAW264.7 [6]) | Activity (Staphylococcus aureus [7]) | Activity (RAW264.7 [8]) | Activity (Staphylococcus aureus [9]) | Activity (Staphylococcus aureus [10]) | Activity (THP-1) | Activity (RAW264.7 [11]) | Activity (Pseudomonas aeruginosa) | Activity (RAW264.7 [12]) | Activity (RAW264.7 [13]) | Activity [14] | Activity (Staphylococcus aureus [15]) | Activity [16] | Activity (Staphylococcus aureus [17]) | further results
Cn1cc(/C=C/C(=O)c2ccc3c(c2)n(C)c(=O)n3C)c2ccccc21 | Active | Active | >70 | inactive | Active | Active | Active | Active | Active | inactive | Active | Active | Active | Active | Active | Active | Non-toxic | Active | Non-toxic | Active | Activity (Staphylococcus aureus [18]): Active; Activity (Staphylococcus aureus [19]): Active; fold change (FC) (Cytochrome P450 1A1): 0.09; Activity [20]: Non-toxic; fold induction at 12 h, 0.5 µM (CYP1A1): 0.25
C#Cc1ccccc1/C=C/C(=O)c1ccc2c(c1)n(C)c(=O)n2C | Active | Active | >70 | inactive | Active | Active | Active | Active | Active | inactive | Active | Active | Active | Active | Active | Active | Non-toxic | Active | Non-toxic | Active | Activity (Staphylococcus aureus [18]): Active; Activity (Staphylococcus aureus [19]): Active; fold change (FC) (Cytochrome P450 1A1): 0.01; Activity [20]: Non-toxic; fold induction at 12 h, 0.5 µM (CYP1A1): 0.06
